Source: patent US20070111965A1, “COMPOSITIONS COMPRISING LIPOXYGENASE INHIBITORS AND CYCLODEXTRIN” (priority 2005, published 2007)

Assays:
[1] = cited from earlier work
[2] = type: physicochemical
Source text: The low solubility in water of certain N-hydroxyurea 5- and/or 12-lipoxygenase inhibitors prevents these beneficial agents from broader use than they would otherwise enjoy if aqueous formulations could be prepared at therapeutically effective concentrations. […] In addition to its poor solubility, zileuton and likely other N-hydroxyurea lipoxygenase inhibitors are predicted to be chemically unstable in aqueous solution for storage at room temperature for prolonged periods of time [Insert Reference]. Degradation is consistent with specific hydronium- or water-catalyzed hydrolysis to afford the carbamic acid, which immediately loses carbon dioxide to generate the hydroxylamine as shown below. [drawing 2]
No buffer catalysis has been observed for zileuton. Using acid- and water-catalyzed rate constants at 25° C., the pseudo first-order rate constant is determined to be approximately 7.8×10^−5 h^−1 over a pH range of about 3.5 to about 7.5. The shelf life at 10% drug loss is calculated to be 57.3 days at an optimal pH of 5.6.
Based on literature data [Alvarez, F J; Slade, R T. Kinetics and mechanism of degradation of zileuton, a potent 5-lipoxygenase inhibitor. Pharm. Res., 1992, 9(11): 1465-1473], zileuton in solution is expected to have adequate short-term stability (at least 1 month at 25° C.) over a pH range of 4 to 7.

[3] = 25° C., pH range of 4 to 7, literature data; cited from earlier work

For `CC(c1cc2ccccc2s1)N(O)C(N)=O` (racemic) [zileuton, ((±)-1-(1-benzo[b]thien-2-ylethyl)-1-hydroxyurea], the solubility in acetonitrile ([1]; acetonitrile) is given as “slightly soluble”, the “solubility in hexane and water” value ([1]; hexane and water) is given as “practically insoluble” and the “solubility in methanol and ethanol” value ([1]; methanol and ethanol) is given as “soluble”. The water solubility ([1]; water, 25° C.) was 80 to 140 µg/mL, the “pseudo first-order rate constant (degradation)” value [2] was “approximately 7.8×10^−5 h^−1” and the “shelf life at 10% drug loss” value ([2]; optimal pH of 5.6, 25° C.) was 57.3 days. The “short-term stability in solution” value [3] was “at least 1 month”.
